Laboratory results: patent US8518953B2, “Aminopyrimidines useful as inhibitors of protein kinases” (Vertex Pharmaceuticals Incorporated, priority 2007, dated 2013)
pIC50, pKi: −log10 of the molar value.

Experiments:
GSK-3β (AA 1-420) = target: T1, GSK-3β (AA 1-420) (Homo sapiens, UniProt P49841); assay: GSK-3 Inhibition Assay (standard coupled enzyme system); type: biochemical; conditions: 20 μM ATP, 300 μM peptide, 20 nM GSK-3β, 30° C.
T1 construct: GSK-3β (AA 1-420)
Description: Compounds of the present invention were screened for their ability to inhibit GSK-3β (AA 1-420) activity using a standard coupled enzyme system (Fox et al., Protein Sci. 1998, 7, 2249). Reactions were carried out in a solution containing 100 mM HEPES (pH 7.5), 10 mM MgCl2, 25 mM NaCl, 300 μM NADH, 1 mM DTT and 1.5% DMSO. Final substrate concentrations in the assay were 20 μM ATP (Sigma Chemicals, St Louis, Mo.) and 300 μM peptide (American Peptide, Sunnyvale, Calif.). Reactions were carried out at 30° C. and 20 nM GSK-3β. Final concentrations of the components of the coupled enzyme system were 2.5 mM phosphoenolpyruvate, 300 μM NADH, 30 μg/ml pyruvate kinase and 10 μg/ml lactate dehydrogenase.
An assay stock buffer solution was prepared containing all of the reagents listed above with the exception of ATP and the test compound of the present invention. The assay stock buffer solution (175 μl) was incubated in a 96 well plate with 5 μl of the test compound of the present invention at final concentrations spanning 0.002 μM to 30 μM at 30° C. for 10 min. […] Rates of reaction were obtained using a Molecular Devices Spectramax plate reader (Sunnyvale, Calif.) over 10 min at 30° C. The Ki values were determined from the rate data as a function of inhibitor concentration.

GSK3α TYR 279 = target: T2, GSK3α TYR 279 (Homo sapiens, UniProt P49840); assay: GSK-3α p-TYR Inhibition Assay (western blotting of Jurkat cells); type: cell-based; conditions: western blot, read-out: GSK3a pTYR 279: IC50
T2 construct: western blotting of Jurkat cells dosed with the compounds; endogenous in cells; host or cells: Jurkat cells
Description: (§1) Compounds are screened for their ability to inhibit the phosphorylation of tyrosine (TYR) residues through the use of western blotting of Jurkat cells dosed with the compounds. The phosphorylation of the specific TYR residues tested are GSK3α TYR 279 and GSK3β TYR 216.
(§2) Jurkat cells are seeded at a density of 2×10^5 cells/well in a 12 well dish in starvation media (RPMI+1% FBS+P/S). Following starvation for 16 hours, the compound is dosed into each well at a final DMSO concentration of 0.3% and cells are incubated o/n at 37° C. 5% CO2. The next day, cells are spun down at 1500 rpm, washed with PBS, and lysed in 100 uL Laemli sample buffer with β-mercaptoethanol.
(§3) 15 microliters (uL) of cell lysates are loaded onto a 10% tris-glycine gel and run at 120 v for 2 hours or until dye front runs off of the gel. The protein is then transferred onto a PVDF membrane at 100 v for 60 min. PBST (PBS containing 0.1% Tween 20, such as 1 ml Tween per 1 L of PBS) is then made up and used for all washes and antibody incubations. The blot is blocked in 5% nonfat milk PBST for one hour.
(§4) The primary antibody (GSK-3α/β pTYR 279/216 at 1:1000 dilution Upstate cat#05-413) is then added in […] PBST overnight at 4° C. with gentle rocking. The blot is then washed in PBST for 5 min. This is then repeated 4 times. […]

GSK3β TYR 216 = target: T3, GSK3β TYR 216 (Homo sapiens, UniProt P49841); assay: GSK3β p-TYR Inhibition Assay (western blotting of Jurkat cells); type: cell-based; conditions: western blot, read-out: GSK3b pTYR 216: IC50
T3 construct: western blotting of Jurkat cells dosed with the compounds; endogenous in cells; host or cells: Jurkat cells
Description: as §1, §2, §3, §4

[1] = system: β-catenin dependent TCF/LEF transcriptional activity; assay: β-Catenin Stabilization Protocol (β-lactamase reporter assay in Jurkat cells); type: cell-based; conditions: Homo sapiens, 460/530 ratio, read-out: Beta Catenin IC50
Text: GSK-3 phosphorylation of β-catenin targets it to the proteosome for degradation. Inhibition of GSK-3 results in accumulation of β-catenin in the cytosol of cells which through interaction with the transcription factor TCF/LEF translocates to the nucleus and drives the transcription of Wnt-dependent genes. The assay is designed to determine the level of β-catenin dependent TCF/LEF transcriptional activity in a quantitative manner through the use of a β-lactamase reporter assay in Jurkat cells dosed with a compound.
Jurkat β-catenin cells are starved overnight in assay media (1% FBS, 1× Penstrep, RPMI) in the flask. The next day Jurkat β-catenin cells are seeded in 96 well flat bottom plates at a density of 50,000 cells/well in assay media in a volume of 100 ul. The compound is added to the well at a final DMSO concentration of 0.75% and incubated at 37° C. o/n. The next day, 20 uL of 6×CCF4 dye is added to the wells and incubated at room temperature for 1-2 hours. Plates are read on the Cytofluor 4000 series multiwell plate reader and the 460/530 ratio is determined.

[2] = system: rat brains after transient middle cerebral artery occlusion; conditions: rat brains after transient MCAO; cited from earlier work

T1 sequence (P49841 whole entry, species assumed, the tested form may be a part): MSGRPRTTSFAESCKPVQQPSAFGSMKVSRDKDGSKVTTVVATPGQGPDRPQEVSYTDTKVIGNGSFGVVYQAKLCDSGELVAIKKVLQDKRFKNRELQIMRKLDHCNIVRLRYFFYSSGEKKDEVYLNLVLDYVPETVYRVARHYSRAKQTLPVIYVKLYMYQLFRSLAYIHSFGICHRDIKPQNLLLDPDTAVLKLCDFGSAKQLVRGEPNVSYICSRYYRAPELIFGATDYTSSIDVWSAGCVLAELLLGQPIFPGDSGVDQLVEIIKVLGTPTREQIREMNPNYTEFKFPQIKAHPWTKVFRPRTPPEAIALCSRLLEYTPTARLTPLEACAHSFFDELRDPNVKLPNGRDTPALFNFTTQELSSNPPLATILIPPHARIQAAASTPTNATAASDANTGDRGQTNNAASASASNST
T3 sequence (P49841 whole entry): as the sequence (P49841 whole entry, species assumed, the tested form may be a part) above
T2 sequence (P49840 whole entry): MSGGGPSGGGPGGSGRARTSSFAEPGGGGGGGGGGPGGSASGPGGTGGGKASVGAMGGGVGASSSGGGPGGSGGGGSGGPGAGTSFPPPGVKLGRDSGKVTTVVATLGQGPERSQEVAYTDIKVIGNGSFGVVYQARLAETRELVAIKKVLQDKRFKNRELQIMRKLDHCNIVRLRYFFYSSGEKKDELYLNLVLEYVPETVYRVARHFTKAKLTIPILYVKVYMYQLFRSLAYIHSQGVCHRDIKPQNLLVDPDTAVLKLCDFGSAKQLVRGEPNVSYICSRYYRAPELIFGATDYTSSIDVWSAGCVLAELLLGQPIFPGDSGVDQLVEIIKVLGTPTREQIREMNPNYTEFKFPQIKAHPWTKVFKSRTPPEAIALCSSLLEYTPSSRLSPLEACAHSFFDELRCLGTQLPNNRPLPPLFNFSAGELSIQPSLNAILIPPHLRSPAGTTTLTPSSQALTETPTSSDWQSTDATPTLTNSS

Row | Compound | pKi (GSK-3β (AA 1-420)) | pIC50 (GSK3α TYR 279) | pIC50 (GSK3β TYR 216) | pIC50 [1] | infarct size [2]
1 | CCc1c(C)nc(-c2ccccc2Cl)nc1Nc1n[nH]c2ncc(F)cc12 [Compound I-2] | > 8.30 | 8.70 | 7.52 | 6.03 | –
2 | IGF-1: insulin growth factor-1, a known GSK-3 inhibitor | – | – | – | – | reduced infarct size
